Data reported in US9932339B2, “Helquats with heteroaromatic substituents, preparation thereof, and use thereof as G-quadruplex stabilizers” (USTAV ORGANICKE CHEMIE A BIOCHEMIE AV CR, V.V.I., priority 2014, dated 2018).
Like-named read-outs stand apart in the source and are kept apart here.

Tests used:
[1] = test system: G-quadruplex in promoter region of the c-myc gene (NHE III1 segment); experiment: Dual luciferase analysis with plasmid pGL4.10-myc (luc2) in HGC-27 cells; format: cell-based, human; conditions: for inhibition at 50 µM / activity at 50 µM: Homo sapiens; for inhibition at 50 µM: HGC-27, text summary of tab. 5 (50 μmol·l^−1), read-out: inhibition of expression of firefly luciferase as compared to control; for activity at 50 µM: read-out: luciferase expression relative to control (control = 100%); for Quantification of expression relative to control (%): control = 100%
Source text: A dual luciferase analysis was used to determine the degree of stabilization of G-quadruplex in a promoter region of the c-myc gene on cellular level. Stabilization of G-quadruplex is expressed as the ratio of expression of two luciferases (firefly and Renilla) from the co-transfected vectors pGL4.10-myc (luc2) and pRL-TK (Renilla) into a cell line HGC-27 expressing c-myc protein. Expression of the reporter gene (firefly luciferase) from pGL4.10-myc vector is controlled by the c-myc regulatory region of a length of 860 by (in the range from −306 to +554). The inserted sequence contains NHE III1 segment which forms G-quadruplex [Yang, D. et al. (2010) Future Med Chem., 2, 619], and is responsible for as much as 90% of the transcriptional activity of the c-myc gene.
Level of expression of firefly luciferase reporter gene corresponds to promoter activity of c-myc and thus to the degree of stabilization of the G-quadruplex. The signal is normalized to Renilla luciferase expression from pRL-TK vector under the control of a constitutive viral thymidine kinase (HSV-TK) promoter. The amount of Renilla luciferase expression serves as an internal control for normalization of firefly signal on transfection efficiency in the sample. Plasmids pGL4.10-myc (luc2) and pRL-TK were propagated in Escherichia coli (DH5α strain) and purified using the Qiagen Plasmid Mini and Midi kits. Cells were cultured under standard conditions and in exponential growth phase were seeded into a white 96-well microtiter plates. Transfection was carried out using a transfection reagent X-tremeGENE HP DNA in OptiMEM media for two hours. The ratio of reporter and control vector was 1:1 and the ratio of transfection reagent to the total amount of DNA was 1:1. Two hours after transfection helquats were added in a concentration of 50 μmol·l^−1. Quantity of firefly and Renilla luciferases in the samples was determined 24 hours after transfection. Dual luciferase analysis was performed using a commercially available kit (Promega, cat. No. E1960) according to manufacturer's instructions. Luminescence was measured using a luminometer EnSpire Alpha Plate Reader. The data obtained were normalized to the Renilla luciferase signal and then the values were related to control.

CCRF-CEM = experiment: XTT cytotoxicity/proliferation assay, CCRF-CEM; format: cell-based
Procedure: To assess the antiproliferative effects of the tested substances in vitro, tumor cell line CCRF-CEM derived from acute lymphoblastic leukemia and normal (healthy) HUVEC endothelial cells from umbilical vein were used. Both of these cell lines were cultured under optimal conditions for their growth in the appropriate medium in plastic bottles or plastic Petri dishes of various sizes (TPP, BD Biosciences) at 37° C., 5% CO2 and 95% humidity. HUVEC cells were purchased from BD Biosciences. CCRF-CEM cell line was obtained from ATCC/LGC Standards (American Type Cell Collection).
Suspension cell line CCRF-CEM is a continuous in vitro culture of acute lymphoblastic leukemia. Cell line CCRF-CEM was grown in RPMI 1640 medium (Sigma-Aldrich, cat. No. R8758) supplemented with 2 mmol·l^−1 glutamine (Invitrogen, cat. No. 35050-038), 10% fetal bovine serum (FBS; Sigma-Aldrich, cat. No. F9665), 100 IU/ml penicillin, 100 μg/ml streptomycin (Sigma-Aldrich, cat. No. P0781). Passaging was carried out 2-3 times a week. Population doubling time of CCRF-CEM cells under the used culture conditions is 20 hours.
For testing of the sensitivity of cell lines to studied helquats XTT cytotoxicity/proliferation assay for determination of cell viability was used. This method is based on the ability of metabolically active cells to reduce the yellow tetrazolium salt XTT to orange formazan. The rate of conversion is measured as the increase in absorbance at 492 nm and is proportional to the enzymatic activity of mitochondrial dehydrogenases and thus the number of metabolically active (viable) cells. The output is the IC50 value corresponding to the concentration of the test substance that causes a decrease in the number of viable cells by half (i.e. 50% slowdown of cell division) relative to the control, untreated population. Thus it reflects the effectiveness of the test substance towards the tested cell line.
Cells in exponential growth phase were plated into 96-well microtiter plate at a concentration of 3000 cells per well. Each well contained 90 μl of cell suspension. The following day, 10 μl of 10× concentrated test substances was added. Effect of helquats has been studied in the concentration range 1-100 μmol·l^−1 (or 1, 2.5, 5, 7.5, 10; 15; 25; 50 and 100 μmol·l^−1). In addition to the part of the plate containing the mentioned dilutions of test compounds there were always two control columns present, first column with medium alone (i.e. blank) and the second column with the cells in medium without test compounds (control). Into the blank and control wells the same volume of solvent (water) as the volume of the substances was added. After 72 hours of treatment with substances the measurement of viability was performed according to the manufacturer instructions. Briefly, into each well of a 96-well microtiter plate 50 μl of the prepared working solution of XTT (detection reagent) was added and then the microtiter plate was returned to the CO2 incubator. After 2 hours, the absorbance of each well at 492 nm (reference wavelength 690 nm) was measured using a multifunctional microplate reader (Tecan Genios, Austria).
The results of determination of the viability of cancer and normal cells after treatment with different concentrations of test substances are summarized in Table 9. […] Each concentration of a helquat was tested in triplicates within one IC50 value determination. Each of these IC50 value determinations was repeated in at least three independent experiments. Values above 100 μmol·l^−1 were obtained by extrapolation of data measured in the concentration range 0-100 μmol·l^−1 of helquats.

HUVEC = experiment: XTT cytotoxicity/proliferation assay, HUVEC; format: cell-based, human
Procedure: To assess the antiproliferative effects of the tested substances in vitro, tumor cell line CCRF-CEM derived from acute lymphoblastic leukemia and normal (healthy) HUVEC endothelial cells from umbilical vein were used. Both of these cell lines were cultured under optimal conditions for their growth in the appropriate medium in plastic bottles or plastic Petri dishes of various sizes (TPP, BD Biosciences) at 37° C., 5% CO2 and 95% humidity. HUVEC cells were purchased from BD Biosciences. CCRF-CEM cell line was obtained from ATCC/LGC Standards (American Type Cell Collection). Normal human endothelial cells from the umbilical vein are adherent cells, which were grown in plastic Petri dishes coated with collagen I. The culture medium (E-STIMTM; BD Biosciences, cat. […] Then, 5 ml of complete culture media E-STIM™ was added and the cells were centrifuged (180×g, 7 minutes), resuspended and transferred in a desired amount in a new Petri dish with fresh medium. In the experiments cells between passages 3 and 8 (after thawing) were used. Population doubling time of HUVEC cells under the used culture conditions is 38 hours. For testing of the sensitivity of cell lines to studied helquats XTT cytotoxicity/proliferation assay for determination of cell viability was used. This method is based on the ability of metabolically active cells to reduce the yellow tetrazolium salt XTT to orange formazan. The rate of conversion is measured as the increase in absorbance at 492 nm and is proportional to the enzymatic activity of mitochondrial dehydrogenases and thus the number of metabolically active (viable) cells. […] Thus it reflects the effectiveness of the test substance towards the tested cell line. Cells in exponential growth phase were plated into 96-well microtiter plate at a concentration of 3000 cells per well. Each well contained 90 μl of cell suspension. The following day, 10 μl of 10× concentrated test substances was added. […] In addition to the part of the plate containing the mentioned dilutions of test compounds there were always two control columns present, first column with medium alone (i.e. blank) and the second column with the cells in medium without test compounds (control). Into the blank and control wells the same volume of solvent (water) as the volume of the substances was added. After 72 hours of treatment with substances the measurement of viability was performed according to the manufacturer instructions. Briefly, into each well of a 96-well microtiter plate 50 μl of the prepared working solution of XTT (detection reagent) was added and then the microtiter plate was returned to the CO2 incubator. After 2 hours, the absorbance of each well at 492 nm (reference wavelength 690 nm) was measured using a multifunctional microplate reader (Tecan Genios, Austria).

[2] = helquat 50 μmol · l^−1, HGC-27, firefly normalized to Renilla, 24 hours after transfection
[3] = Homo sapiens, CCRF-CEM, 72 hours of treatment, read-out: IC50 CCRF CEM
[4] = Homo sapiens, CCRF-CEM, 72 hours, summary of table 9, read-out: concentrations toxic towards CCRF-CEM cells
[5] = Homo sapiens, HUVEC, 72 hours of treatment, values above 100 μmol·l^−1 obtained by extrapolation, read-out: IC50 HUVEC
[6] = Homo sapiens, HUVEC, 72 hours, summary of table 9, read-out: concentrations non-toxic towards HUVEC cells

Compound	inhibition at 50 µM [1] [%]	activity at 50 µM [1, 2] [%]	IC50 (CCRF-CEM; [3]) [µM]	IC50 (CCRF-CEM; [4]) [µM]	IC50 (HUVEC; [5]) [µM]	IC50 (HUVEC; [6]) [µM]	luciferase expression relative to control (control = 100%) [1, 2] [%]	IC50 (CCRF-CEM; 72 hours of treatment, read-out: IC50 CCRF CEM) [µM]	IC50 (HUVEC; 72 hours of treatment, values above 100 μmol·l^−1 obtained by extrapolation, read-out: IC50 HUVEC) [µM]	Quantification of expression relative to control (%) ([1]; 10 μmol · l^−1)	Quantification of expression relative to control (%) ([1]; 50 μmol · l^−1)	Quantification of expression relative to control (%) ([1]; 150 μmol · l^−1)
Cn1c(/C=C/c2cc3ccccc3[n+]3c2-c2c(ccc4c2-c2cccc[n+]2CCC4)CCC3)cc2ccccc21 [MSC-C10-10, 19-((E)-2-(1-methyl-1H-indol-2-yl)vinyl)-6,7,8,11,12,13-hexahydropyrido[1′″,2′″:1″,2″]azepino[4″,3″:5′,6′]benzo[1′,2′:3,4]azepino[1,2-a]quinoline-5,14-diium trifluoromethanesulfonate]	> 10	85	11 to 25	< 25	≥ 100	> 100						
Cc1[nH]c2ccccc2c1/C=C/c1cc2ccccc2[n+]2c1-c1c(ccc3c1-c1cccc[n+]1CCC3)CCC2.O=S(=O)([O-])C(F)(F)F.O=S(=O)([O-])C(F)(F)F [MSC-C10-11, 19-((E)-2-(2-methyl-1H-indol-3-yl)vinyl)-6,7,8,11,12,13-hexahydropyrido[1′″,2″:1″,2″]azepino[4″,3″:5′,6′]benzo[1′,2′:3,4]azepino[1,2-a]quinoline-5,14-diium trifluoromethanesulfonate]							74	11 to 25	≥ 100			
C(=C\c1c[nH]c2c1ccc1ccccc12)/c1cc2ccccc2[n+]2c1-c1c(ccc3c1-c1cccc[n+]1CCC3)CCC2 [MSC-C13-16, 19-((E)-2-(1H-benzo[g]indol-3-yl)vinyl)-6,7,8,11,12,13-hexahydropyrido[1′″,2′″:1″,2″]azepino[4″,3″:5′,6′]benzo[1′,2′:3,4]azepino[1,2-a]quinoline-5,14-diium trifluoromethanesulfonate]	> 10	85	≤ 10	< 25	≥ 100	> 100						
Cc1c(C)c2c(c3c1CC[n+]1ccc4ccccc4c1-3)-c1cccc(/C=C/c3ccc(-c4ccc(-c5cccs5)s4)s3)[n+]1CC2.O=S(=O)([O-])C(F)(F)F.O=S(=O)([O-])C(F)(F)F [VDJA-C13-6, (E)-11-(2-([2,2′;5′,2″-terthiophen]-5-yl)vinyl)-6,7-dimethyl-4,5,8,9-tetrahydroisoquinolino[1,2-a]pyrido[1,2-k][2,9]phenanthroline-3,10-diium trifluoromethanesulfonate]		27	11 to 25		≥ 51					59.0 ± 17.9	27.1 ± 0.8	15.3 ± 2.9
